What is called Ki is a measure of affinity in units of concentration, obtained from inhibition or displacement. Read a high Ki as weaker binding.

A value given as a limit tells only on which side of the number the result lay.

Drawing on BindingDB's records for PubMed 2138666 (Department of Veterans Affairs Medical Center, 1990), this text covers Ki for five molecules.

Test [1] deals with T1, Alpha-2C adrenergic receptor (Rattus norvegicus, UniProt P22086).
T1 sequence (P22086 whole entry): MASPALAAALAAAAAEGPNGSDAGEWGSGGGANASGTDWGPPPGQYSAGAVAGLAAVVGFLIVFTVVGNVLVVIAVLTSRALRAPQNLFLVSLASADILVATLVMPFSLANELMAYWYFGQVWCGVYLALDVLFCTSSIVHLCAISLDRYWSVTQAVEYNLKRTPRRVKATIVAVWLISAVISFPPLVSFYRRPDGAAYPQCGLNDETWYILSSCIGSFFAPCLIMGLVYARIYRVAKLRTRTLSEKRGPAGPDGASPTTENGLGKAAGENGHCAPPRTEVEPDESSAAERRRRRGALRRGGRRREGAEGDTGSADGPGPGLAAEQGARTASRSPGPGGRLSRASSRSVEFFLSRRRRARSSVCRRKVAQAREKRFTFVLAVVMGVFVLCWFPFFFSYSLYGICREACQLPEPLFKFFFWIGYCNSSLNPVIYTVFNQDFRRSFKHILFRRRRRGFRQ

The next test addresses D(2) dopamine receptor (Rattus norvegicus, UniProt P61169).

Chain of D(2) dopamine receptor (P61169 whole entry): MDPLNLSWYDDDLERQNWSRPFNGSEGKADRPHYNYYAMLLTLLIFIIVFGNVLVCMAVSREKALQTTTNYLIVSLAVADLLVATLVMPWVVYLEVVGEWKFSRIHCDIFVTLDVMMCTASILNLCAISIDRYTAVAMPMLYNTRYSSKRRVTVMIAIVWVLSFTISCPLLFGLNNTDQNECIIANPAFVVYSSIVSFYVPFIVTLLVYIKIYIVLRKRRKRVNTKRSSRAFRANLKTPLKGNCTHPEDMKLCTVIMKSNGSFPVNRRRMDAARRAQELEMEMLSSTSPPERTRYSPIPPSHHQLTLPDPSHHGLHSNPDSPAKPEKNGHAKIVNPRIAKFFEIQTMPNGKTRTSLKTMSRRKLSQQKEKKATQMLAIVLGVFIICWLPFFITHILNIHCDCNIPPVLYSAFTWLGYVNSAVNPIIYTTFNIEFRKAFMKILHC

`CC(C)(C)[C@]1(O)CCN2C[C@H]3c4ccccc4CCc4cccc(c43)[C@@H]2C1` registered a Ki in test [1] of 0.158 µM.

`c1ccc2c(c1)OCC(C1=NCCN1)O2` (stereo not given) showed a Ki on D(2) dopamine receptor of over 10 µM.

Take `Clc1cccc(Cl)c1N=C1NCCN1` [2-(2,6-dichloroanilino)-2-imidazoline]: the Ki on D(2) dopamine receptor is over 10 µM.

In test [1], `CCN1CCCC1CNC(=O)c1cc(S(N)(=O)=O)ccc1OC` (stereo not given) [N-[(1-ethylpyrrolidin-2-yl)methyl]-2-methoxy-5-sulfamoylbenzamide] came in with a Ki of 4.3 µM.

For the molecule `Nc1cc(Cl)c(N=C2NCCN2)c(Cl)c1` [p-AMINOCLONIDINE], the Ki on D(2) dopamine receptor is over 10 µM.
